These results are taken from patent US20070066636A1, “POLYMORPHS OF TARTRATE SALT OF 2-[2-(3-(R)-AMINO-PIPERIDIN-1-YL)-5-FLUORO-6-OXO-6H-PYRIMIDIN-1-YLMETHYL]-BENZONITRILE AND METHODS OF USE THEREFOR” (priority 2005, published 2007).

Holding throughout (assay type): physicochemical
Data set [1] can be described thus: Moisture sorption/desorption analysis. Conditions: for solid form of post moisture sorption/desorption sample by XRPD: after 5%-95%-5% RH cycle; for Weight Change: 25 C. The procedure:
Moisture sorption/desorption data were collected on a VTI SGA-100 Vapor Sorption Analyzer. Sorption and desorption data were collected over a range of 5% to 95% relative humidity (RH) at 10% RH intervals under a nitrogen purge. Sodium chloride (NaCl) and polyvinylpyrrolidone (PVP) were used as the calibration standards. Equilibrium criteria used for analysis were less than 0.0100% weight change in 5 minutes, with a maximum equilibration time of 180 minutes if the weight criterion was not met. The plotted data that contain the percent weight change values at various RH intervals are relative to the initial weight of the sample. The plotted data have not been corrected for the initial moisture content. However, the weight gain data provided in the tables for the various relative humidity ranges are calculated using the sample weight at the beginning of the particular RH event as the initial weight. In particular, the equilibration event wt. % change from initial wt. to 5% RH was calculated as [(wt at 5% RH−initial wt.)/initial wt.]*100; and the sorption event wt. % change from 5% RH to 95% RH was calculated as [(wt. at 95% RH−wt at 5% RH)/wt at 5% RH]*100; and the desorption event wt. % change from 95% RH to 5% RH was calculated as [(wt. at 5% RH−wt at 95% RH)/wt at 95% RH]*100. This type of analysis permits direct comparison of the experimental weight changes to the theoretical values predicted for the inter-conversion of anhydrates to hydrated forms.

A short description of data set [2]: Slurry interconversion studies in methanol. Conditions: room temperature, slurry time 5 days. The method, then:
Slurry Experiments: Enough Compound I was added to a given solvent so that undissolved solids were present. The mixture was then agitated in a sealed vial at ambient temperature using either an orbital shaker or a rotating wheel. After several days the solids were isolated by vacuum filtration and allowed to dry at ambient temperature in the fume hood with the cap for the sample vial loosened.
In order to determine the relative stability of the polymorphs Compound I form A was slurried in separate experiments with roughly equal amounts of forms B, C and E in methanol at room temperature. After 12 days the solids were isolated and form A was recovered as the exclusive solid phase (Table 6). In addition to these experiments, slurries of forms B, C and D in the absence of other solid phases provided form A when slurried for 5 days in methanol at room temperature. […] It should be noted that the hydration states of these solid phases may be different for the different forms, which precludes an analysis of the true thermodynamic stability ordering through slurry experiments.

A short description of data set [3]: Relative humidity (RH) stress of solids, XRPD. Conditions: ambient, 21 d. The procedure: Relative Humidity (RH) Stress: Open vials containing solid samples were placed inside chambers containing saturated salt solutions along with a small amount of the undissolved salt. The chambers were sealed and allowed to stand at ambient temperature for several weeks. Samples were analyzed by X-ray powder diffraction (XRPD) immediately after removing the sample from the RH chamber. The RH values for these salt solutions were obtained from an ASTM standard. See a) “Preparation and Use of Relative Humidity Chambers” SSCI Method MTD 032.01 Mar. 3, 2003; and b) “Standard Practice for Maintaining Constant Relative Humidity by Means of Aqueous Solutions” ASTM Standard E 104-02 (2002).

The mark [4] stands for this setting: after desorption at about 5% RH, Tables 2C-2F (values fit change relative to initial weight).
Where [5] appears, read: after equilibration at about 5% RH, Tables 2C-2F (values fit change relative to initial weight).
Setting [6] is: after sorption at about 95% RH, Tables 2C-2F (values fit change relative to initial weight).

Where a name gives a salt, the structure may show the parent alone.

In the case of `N#Cc1ccccc1Cn1c(N2CCC[C@@H](N)C2)ncc(F)c1=O` [Form B, tartrate salt of 2-[2-(3-(R)-amino-piperidin-1-yl)-5-fluoro-6-oxo-6H-pyrimidin-1-ylmethyl]-benzonitrile], the “solid form of post moisture sorption/desorption sample by XRPD” value in data set [1] is reported as “form C”. Further, the “Weight Change” value was −6.30% in data set [1] (desorption, 95% RH to about 5% RH, Tables 2A, 2B (relative to weight at start of the event)); −0.50% in data set [1] (equilibration, initial weight to about 5% RH, Tables 2A, 2B (relative to weight at start of the event)); 6.64% in data set [1] (sorption, 5% RH to about 95% RH, Tables 2A, 2B (relative to weight at start of the event)). Also, the “initial weight loss from ambient conditions to 5% RH” value (from here on “initial weight loss … to 5% RH”) in data set [1] (moisture sorption/desorption) is “approximately 0.5%”. Also, the “weight gain between 5% and 95% RH” value in data set [1] (moisture sorption/desorption) stood at 6.6%. In data set [2], the “XRPD Result after slurry” value is “Form A”.

In the case of `N#Cc1ccccc1Cn1c(N2CCC[C@@H](N)C2)ncc(F)c1=O` [Form C, tartrate salt of 2-[2-(3-(R)-amino-piperidin-1-yl)-5-fluoro-6-oxo-6H-pyrimidin-1-ylmethyl]-benzonitrile], the “solid form of post moisture sorption/desorption sample by XRPD” value in data set [1] was “form C”. Besides, the results for the “Weight Change” value in data set [1] (setting [4]), in data set [1] (setting [5]) and in data set [1] (setting [6]) were −0.899%, −0.873% and 4.744%, respectively. In addition, the “molecules of water present for every molecule of compound” value in data set [1] (at 95% RH, calculated from desorption weight change and molecular weight) is “approximately 1.5”. The “initial weight loss … to 5% RH” value in data set [1] (moisture sorption/desorption) is on record as “approximately 0.9%”. In addition, the “weight gain between 5% and 95% RH” value in data set [1] (moisture sorption/desorption) turned out to be 5.7%. For the same molecule, the “XRPD Result after slurry” value in data set [2] is “Form A”.

Consider `N#Cc1ccccc1Cn1c(N2CCC[C@@H](N)C2)ncc(F)c1=O` [Form D, tartrate salt of 2-[2-(3-(R)-amino-piperidin-1-yl)-5-fluoro-6-oxo-6H-pyrimidin-1-ylmethyl]-benzonitrile], for which the “XRPD Result after slurry” value in data set [2] is “Form A”.

As to `N#Cc1ccccc1Cn1c(N2CCC[C@@H](N)C2)ncc(F)c1=O` [Form E, tartrate salt of 2-[2-(3-(R)-amino-piperidin-1-yl)-5-fluoro-6-oxo-6H-pyrimidin-1-ylmethyl]-benzonitrile], the “solid form of post moisture sorption/desorption sample by XRPD” value in data set [1] is listed as “form C”. Besides, the “Weight Change” value in data set [1] (setting [4]) is listed as 0.098%; in data set [1] (setting [5]), −0.352%; in data set [1] (setting [6]) it was 8.801%. The “initial weight loss … to 5% RH” value in data set [1] (moisture sorption/desorption) is “approximately 0.4%”. Moreover, the “weight gain between 5% and 95% RH” value in data set [1] (moisture sorption/desorption) turned out to be 9.2%.

`N#Cc1ccccc1Cn1c(N2CCC[C@@H](N)C2)ncc(F)c1=O` [amorphous Form 1, tartrate salt of 2-[2-(3-(R)-amino-piperidin-1-yl)-5-fluoro-6-oxo-6H-pyrimidin-1-ylmethyl]-benzonitrile]: the “solid form of post moisture sorption/desorption sample by XRPD” value in data set [1] is given as “tentatively identified as containing form A”. For the same molecule, the “Weight Change” value is listed as 0.868% in data set [1] (setting [4]), −0.054% in data set [1] (setting [5]) and 13.393% in data set [1] (setting [6]). For the same molecule, in data set [1] (moisture sorption/desorption), the “initial weight gain from ambient conditions to 5% RH” value is reported as “approximately 0.2%”. In addition, the “weight gain between 5% and 95% RH” value in data set [1] (moisture sorption/desorption) is 5.8%; in data set [1] (moisture sorption/desorption, listed as freeze dried Compound I), about 13.5%. Further, the “XRPD Pattern after RH stress” value is “Amorphous” in data set [3] (6% RH stress); “Amorphous” in data set [3] (33% RH stress); “Amorphous” in data set [3] (58% RH stress); “Form B” in data set [3] (75% RH stress); “Pattern F” in data set [3] (84% RH stress).

As to `N#Cc1ccccc1Cn1c(N2CCC[C@@H](N)C2)ncc(F)c1=O` [amorphous Form 2, tartrate salt of 2-[2-(3-(R)-amino-piperidin-1-yl)-5-fluoro-6-oxo-6H-pyrimidin-1-ylmethyl]-benzonitrile], the entries for the “Weight Change” value in data set [1] (setting [4]), in data set [1] (setting [5]) and in data set [1] (setting [6]) were 0.433%, 0.156% and 6.013%, respectively.
